Source: US20260234112A1, “COMPOUNDS, COMPOSITIONS, AND METHODS OF USE THEREOF” (Type6 Therapeutics, Inc., priority 2023, published 2026)

target: T1, Cdk2(2-298) (Homo sapiens, UniProt P24941); assay: Surface Plasmon Resonance (SPR) compound interaction, Biacore 8K; format: binding; conditions: single-cycle kinetics (SCK, "S"), dissociation 1800 sec, read-out: Activity rating (KD)
T1 construct: Biotinylated N-terminal avi-tagged Cdk2(2-298) or Cdk1(1-297) was immobilized
Procedure: Compound interaction was profiled using a Biacore 8K instrument (Cytiva). Biotinylated N-terminal avi-tagged Cdk2(2-298) or Cdk1(1-297) was immobilized on a series S sensor Chip SA at a capture level between 2500 RU and 3000 RU (Cdk2) or 7000 RU (Cdk1) in buffer (25 mM HEPES, 150 mM NaCl, 0.05% Tween20, pH 7.5). A compound dilution plate (8 concentrations, 3-fold dilution) in DMSO was prepared (100× assay concentration). From this plate, compound DMSO stock solution was transferred into buffer, yielding a final DMSO concentration of 1% in assay. The remaining buffer was supplemented with 1% DMSO. Compounds were injected in a series of increasing concentrations in multi-cycle kinetics (MCK, “M”) or single-cycle kinetics (SCK, “S”) mode at a flow rate of 30 μl/min for 120 sec and dissociation was profiled for 180 sec (MCK) or 1800 sec (SCK). Data were analysed using Biacore Insight Evaluation Software (Cytiva).

**Q.** With N[C@H]1CC[C@H](Nc2nccc(-c3ccccc3Oc3ccc(NS(=O)(=O)c4ccccc4)cc3F)n2)CC1 [Compound 1, N-[4-[2-[2-[(1r,4r)(4-Aminocyclohexyl)amino]pyrimidin-4-yl]phenoxy]-3-fluoro-phenyl] benzenesulfonamide] as the molecule, how does the Kd read?
**A.** 11 to 100 nM

**Q.** How did the Kd turn out when O=S(=O)(Nc1ccc(Oc2ccccc2-c2ccnc(N[C@H]3CCCNC3)n2)c(F)c1)c1ccccc1 [Compound 2, N-[3-Fluoro-4-[2-[2-[[(3S)-3-piperidyl]amino]pyrimidin-4-yl]phenoxy]phenyl] benzenesulfonamide] was run?
**A.** 1000 to 5000 nM

**Q.** How did the Kd turn out when N[C@H]1CC[C@H](Nc2nccc(-c3ccccc3Oc3ccc(NS(=O)(=O)c4ccccc4Cl)cc3F)n2)CC1 [Compound 3, N-[4-[2-[2-[(1r,4r)(4-Aminocyclohexyl)amino]pyrimidin-4-yl]phenoxy]-3-fluorophenyl] 2-chlorobenzenesulfonamide] was run?
**A.** 11 to 100 nM

**Q.** How did the Kd turn out when N[C@H]1CC[C@H](Nc2nccc(-c3ccccc3Oc3ccc(NS(=O)(=O)c4cccc5ccccc45)cc3F)n2)CC1 [Compound 4, N-[4-[2-[2-[(1r,4r)(4-Aminocyclohexyl)amino]pyrimidin-4-yl]phenoxy]-3-fluorophenyl] naphthalene-1-sulfonamide] was run?
**A.** 100 to 1000 nM

**Q.** For O=S(=O)(Nc1ccc(Oc2ccccc2-c2ccnc(N[C@H]3CCCNC3)n2)c(F)c1)c1ccccc1Cl [Compound 5, N-[3-Fluoro-4-[2-[2-[[(3S)-3-piperidyl]amino]pyrimidin-4-yl]phenoxy]phenyl] 2-chlorobenzenesulfonamide], which Kd is on record?
**A.** ≤ 10 nM

**Q.** For O=S(=O)(Nc1ccc(Oc2ccccc2-c2ccnc(N[C@H]3CCCNC3)n2)c(F)c1)c1cccc2ccccc12 [Compound 6, N-[3-Fluoro-4-[2-[2-[[(3S)-3-piperidyl]amino]pyrimidin-4-yl]phenoxy]phenyl] naphthalene-1-sulfonamide], which Kd is on record?
**A.** 100 to 1000 nM

**Q.** With Cc1ccc(Oc2ccc(NS(=O)(=O)c3ccccc3Cl)cc2F)c(-c2ccnc(N[C@H]3CC[C@H](N)CC3)n2)c1 [Compound 7, N-[4-[2-[2-[(1r,4r)(4-Aminocyclohexyl)amino]pyrimidin-4-yl]-4-methylphenoxy]-3-fluorophenyl] 2-chlorobenzenesulfonamide] as the molecule, how does the Kd read?
**A.** 11 to 100 nM

**Q.** N[C@H]1CC[C@H](Nc2nccc(-c3cc(C(F)(F)F)ccc3Oc3ccc(NS(=O)(=O)c4ccccc4Cl)cc3F)n2)CC1 [Compound 8, N-[4-[2-[2-[(1r,4r)(4-Aminocyclohexyl)amino]pyrimidin-4-yl]-4-(trifluoromethyl)phenoxy]-3-fluorophenyl] 2-chlorobenzenesulfonamide] was tested. Which Kd did it give?
**A.** 11 to 100 nM

**Q.** With Cc1ccc(-c2ccnc(N[C@H]3CC[C@H](N)CC3)n2)c(Oc2ccc(NS(=O)(=O)c3ccccc3Cl)cc2F)c1 [Compound 9, N-[4-[2-[2-[(1r,4r)(4-Aminocyclohexyl)amino]pyrimidin-4-yl]-5-methylphenoxy]-3-fluorophenyl] 2-chlorobenzenesulfonamide] as the molecule, how does the Kd read?
**A.** 11 to 100 nM

**Q.** With N#Cc1ccc(Oc2ccc(NS(=O)(=O)c3ccccc3Cl)cc2F)c(-c2ccnc(N[C@H]3CC[C@H](N)CC3)n2)c1 [Compound 10, N-[4-[2-[2-[(1r,4r)(4-Aminocyclohexyl)amino]pyrimidin-4-yl]-4-cyanophenoxy]-3-fluorophenyl] 2-chlorobenzenesulfonamide] as the molecule, how does the Kd read?
**A.** 11 to 100 nM

**Q.** How did the Kd turn out when CC(C)(C)c1ccc(-c2ccnc(N[C@H]3CC[C@H](N)CC3)n2)c(Oc2ccc(NS(=O)(=O)c3ccccc3Cl)cc2F)c1 [Compound 11, N-[4-[2-[2-[(1r,4r)(4-Aminocyclohexyl)amino]pyrimidin-4-yl]-5-(1,1-dimethylethyl)phenoxy]-3-fluorophenyl] 2-chlorobenzenesulfonamide] was run?
**A.** 11 to 100 nM

**Q.** With N[C@H]1CC[C@H](Nc2nccc(-c3ccc(I)cc3Oc3ccc(NS(=O)(=O)c4ccccc4Cl)cc3F)n2)CC1 [Compound 16, N-[4-[2-[2-[(1r,4r)(4-Aminocyclohexyl)amino]pyrimidin-4-yl]-5-iodophenoxy]-3-fluorophenyl] 2-chlorobenzenesulfonamide] as the molecule, how does the Kd read?
**A.** 11 to 100 nM
